Source: US5935597A, “Drug delivery devices and methods for treatment of viral and microbial infections and wasting syndromes” (Cryopreservation Technologies CC, priority 1995, dated 1999)

How the values were obtained:
HIV-1 = test: Example 7: HIV-1 viral load by quantitative PCR (Roche amplicor HIV monitor); type: in vivo, human; conditions: certain patients; reduction from 120,000; within three weeks, as little as three treatments
Method: Each patch was applied for a period of 12 hours, either once per week over a period of 12 weeks, or twice per week over a period of 6 weeks.
Blood tests in certain patients indicated an increase in CD4 T-cell counts from 350 to 1000, and a rapid reduction of PCR (Polymerase chain reaction) (viral load) of 120,000 to 500/ml within three weeks with as little as three treatments. […] The PCR test conducted was the Roche amplicor HIV monitor. A viral load of <500/ml plasma is considered to be undetectable.
A daily virological serology workout to establish total body virus count and to monitor improvements in the immune status of the patient (CD4+ T-helper cells) and prognostic factors were also conducted. The serology workout was based on p24 antigen and quantitative PCR or, optionally, by other methods. A weekly determination of CD4 counts and […] was also conducted specifically to monitor improvements in the patient's immune status and prognosis. All clinical and laboratory data were fed into a centralized data system to facilitate rapid response to any detrimental change so as to curtail treatment to maximize clinical effect and minimize potential side effects.

[1] = water, alcohols and some hydrocarbons; cited from earlier work
[2] = cited from earlier work
[3] = Example 8 pilot study: peak plasma DMF level (GC/MS); type: in vivo; conditions: human, topical or ocular
Method: A pilot study was conducted to evaluate the efficacy of transdermal DMF in the treatment of patients infected with HIV. Informed consent was obtained from each patient. Seropositive status was verified by Western blot using a commercial kit for detecting antibodies to p24 (Abbott Diagnostics) and the presence of HIV-1 was documented by quantitative PCR using a commercial kit (Roche Amplicor).
Operational parameters were as follows: GC temperature program: 60° C. for 1 min. followed by a temperature gradient of 9.4° C./min. for 20 min. MS ionization method: electron impact; mass range: 40-80 mass units; 1 scan/sec; peak threshold: 3 counts/sec; background mass: 69 mass units. A stock solution of dimethylacetamide was used as an internal standard. All samples were extracted with an organic solvent containing the internal standard, allowed to precipitate for 30 min. in a refrigerator, and centrifuged at 3000×g for 5 min. before transfer to GC vials for injection.
Dermal patches 9 cm in diameter were used within 12 hours of manufacture. […] The patches were visually inspected to verify the absence of leakage and were weighed on an analytical balance to verify less than 10% deviation from a total mass of 8.153 g. The patches were applied to the skin of the forearm and secured with Elastoplast™ bandages. Either one or two patches were used for the initial dose, as determined from the predicted skin transfer rate of 9.4 mg/cm^2 /hr and the patient's body weight.
A staged dose of DMF was used, with two-hourly blood and urine sampling to determine peak plasma DMF levels. […] Initial evaluation included daily determination of: […]

## CN(C)C=O [DMF, N,N'-dimethylformamide]
HIV-1
  PCR viral load: 500 mL⁻¹
[1]
  miscibility: freely miscible with water, alcohols and some hydrocarbons
[2]; dermal, oral and inhalation
  acute toxicity: low acute dermal, oral and inhalation toxicity
[2]; in vivo
  hepatic toxicity: reversible hepatic damage
  mutagenicity and carcinogenicity: not thought to be a mutagen or a carcinogen
  skin and eye irritation: mild to moderate skin and eye irritant
  skin sensitization: no indication of skin sensitizing properties
  teratogenicity: teratogenic
[3]; 3750 mg, Patient 6, two patches once weekly, 6 hours, average weekly dose 3.75 g
  Cmax: 67 µg/mL
[3]; 4600 mg, Patient 7, 1 patch, 4 hours, average weekly dose 4.60 g
  Cmax: 100 µg/mL
[3]; 6110 mg, Patient 3, two patches once a week, 8 hours, average weekly dose 6.11 g
  Cmax: 75 µg/mL
[3]; 6240 mg, Patient 8, two patches once weekly, 8 hours, average weekly dose 6.24 g
  Cmax: 130 µg/mL
[3]; 7120 mg, Patient 2, one patch per week, 8 hours, average weekly dose 7.12 g
  Cmax: 125 µg/mL
[3]; 7330 mg, Patient 4, two patches once weekly, 8 hours, average weekly dose 7.33 g
  Cmax: 90 µg/mL
[3]; 8250 mg, Patient 5, two patches weekly, 8 hours, average weekly dose 8.25 g
  Cmax: 110 µg/mL
[3]; 8970 mg, Patient 1, two patches once a week, 8 hours, average weekly dose 8.97 g
  Cmax: 121 µg/mL
